System: human pulmonary cell line (A549) stimulated with TNFα; interleukin 8 (IL-8)
Test: Anti-inflammatory effect on TNFα-stimulated A549 cells (IL-8 as inflammatory marker), substance applied as aerosol at the ALI with device 2 or pipetted on submerged cells
Format: cell-based
Details: FIG. 4
Source text: On the other hand, if polarized lung epithelial cells (e.g. primary cells) are used, significant differences in the biological response can be expected. After stimulation of A549 cells with the tumor necrosis factor α (TNF α), the interleukin 8 (IL-8) as inflammatory marker is induced approximately 7-fold (corresponds to value 1 in FIG. 4), relative to the basal value (non-stimulated cells). […] This exemplifies that with device 2, aerosolized active substances can be applied accurately dosed and without loss of bioactivity (e.g. due to shear stresses during nebulization) on human pulmonary cells at the ALI. Thus, device 2 is suitable for the systematic screening of substances with respect to their potential as an active ingredient in aerosolized form.
This device 2 is thereby validated as a tool for quantitative drug screening for aerosolized liquid substances.

`CC(C)C[C@H](NC(=O)[C@H](Cc1ccccc1)NC(=O)c1cnccn1)B(O)O` [Bortezomib] was tested, and the “dose-response curve after administration in aerosolized form with device 2 (ALI) compared with reference curve (substance pipetted on submerged cells)” value (A549 cells at the ALI, TNFα-stimulated) was “identical to the reference curve” and the “reduction of the TNFα-induced inflammatory effect (IL-8 induction), factor” value (A549 cells, non-polarized, stimulated with TNFα, dose-dependent) was no more than 2.

Reference: patent US20160010047A1, “DEVICE AND METHOD FOR WETTING A SAMPLE WITH AN AEROSOL” (Helmholtz Zentrum Muenchen Deutsches Forschungszentrum fuer …, priority 2013, published 2016)
